# Test results from ChEMBL document CHEMBL1201862, “PubChem BioAssay data set” (2004).
#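 1) Cells in 96-well plates. 2) Compound, 48 h, 5 concentrations. 3) Linear interpolation between surrounding doses. 4) Unreached endpoint = highest concentration. GI50 = concentration required for 50% inhibition of growth.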 Active and inactive are the calls of the source. Rule as the data show it: active = GI50 up to about 1.1 µM and inactive = higher. Peptide text beside a SMILES is read from it. * marks the point of attachment. Cbz = O=C(OCc1ccccc1)*
# Legend:
# Assay in all cases: NCI anticancer screen, dose series, 48 h
# MCF7 = tested on: MCF7
# KM12 = tested on: KM12
# HOP-62 = tested on: HOP-62
# M14 = tested on: M14
# SNB-19 = tested on: SNB-19
# MDA-MB-231 = tested on: MDA-MB-231
# U-251 = tested on: U-251
# HCT-116 = tested on: HCT-116
# Hs-578T = tested on: Hs-578T
# ACHN = tested on: ACHN
# BT-549 = tested on: BT-549
# UACC-62 = tested on: UACC-62
# SK-MEL-2 = tested on: SK-MEL-2
# HL-60 = tested on: HL-60
# SF-295 = tested on: SF-295
# OVCAR-3 = tested on: OVCAR-3
# SR = tested on: SR
# 786-0 = tested on: 786-0
# EKVX = tested on: EKVX
# NCI-H460 = tested on: NCI-H460
SMILES,GI50 (MCF7),GI50 (KM12),GI50 (HOP-62),GI50 (M14),GI50 (SNB-19),GI50 (MDA-MB-231),GI50 (U-251),GI50 (HCT-116),GI50 (Hs-578T),GI50 (ACHN),GI50 (BT-549),GI50 (UACC-62),GI50 (SK-MEL-2),GI50 (HL-60),GI50 (SF-295),GI50 (OVCAR-3),GI50 (SR),GI50 (786-0),GI50 (EKVX),GI50 (NCI-H460)
C=CC(Br)(CBr)CCC(Br)C(C)(C)Cl (stereo not given),1.83 µM (inactive),1.6 µM (inactive),3.78 µM (inactive),5.14 µM (inactive),1.71 µM (inactive),2.49 µM (inactive),1.53 µM (inactive),1.64 µM (inactive),3.4 µM (inactive),2.42 µM (inactive),6.52 µM (inactive),4.78 µM (inactive),8.73 µM (inactive),0.807 µM (active),1.82 µM (inactive),2.23 µM (inactive),1.66 µM (inactive),2.35 µM (inactive),8.18 µM (inactive),2.21 µM (inactive)
C1COC2SC3=C(SC(=C4SC5=C(SCCS5)S4)S3)SC2O1 (stereo not given),> 100 µM (inactive),17.4 µM (inactive),> 100 µM (inactive),94 µM (inactive),> 100 µM (inactive),> 100 µM (inactive),> 100 µM (inactive),> 100 µM (inactive),80.9 µM (inactive),> 100 µM (inactive),> 100 µM (inactive),22 µM (inactive),> 100 µM (inactive),33.9 µM (inactive),36.7 µM (inactive),> 100 µM (inactive),3.68 µM (inactive),77.8 µM (inactive),> 100 µM (inactive),> 100 µM (inactive)
N=C(N)c1ccc(/N=N\c2c(O)c(C(=O)Nc3ccccc3)cc3ccccc23)cc1,9.86 µM (inactive),16.4 µM (inactive),14.5 µM (inactive),> 71.4 µM (inactive),19.6 µM (inactive),8.04 µM (inactive),3.76 µM (inactive),3.3 µM (inactive),27.3 µM (inactive),23.3 µM (inactive),46 µM (inactive),> 87.5 µM (inactive),68.1 µM (inactive),7.98 µM (inactive),> 60.3 µM (inactive),32.7 µM (inactive),7.89 µM (inactive),10.8 µM (inactive),17 µM (inactive),24.8 µM (inactive)
CN1CC(S(=O)(=O)c2ccccc2)CC(S(=O)(=O)c2ccccc2)C1c1ccccc1 (stereo not given),12.4 µM (inactive),13.2 µM (inactive),20 µM (inactive),16.8 µM (inactive),23.4 µM (inactive),15.3 µM (inactive),12.1 µM (inactive),10.4 µM (inactive),20.9 µM (inactive),12.5 µM (inactive),11.7 µM (inactive),14.3 µM (inactive),4.47 µM (inactive),8.81 µM (inactive),29.4 µM (inactive),12.3 µM (inactive),6.22 µM (inactive),12.2 µM (inactive),14.3 µM (inactive),16.2 µM (inactive)
Cc1ccc(OP(=O)(Oc2ccc(C)cc2)N2C=Cc3ccccc3C2C#N)cc1 (stereo not given),> 100 µM (inactive),> 100 µM (inactive),> 100 µM (inactive),> 100 µM (inactive),> 100 µM (inactive),> 100 µM (inactive),> 100 µM (inactive),> 100 µM (inactive),70.5 µM (inactive),> 100 µM (inactive),> 100 µM (inactive),> 100 µM (inactive),> 100 µM (inactive),> 100 µM (inactive),> 100 µM (inactive),> 100 µM (inactive),> 100 µM (inactive),> 100 µM (inactive),> 100 µM (inactive),> 100 µM (inactive)
O=C(c1ccco1)N(Cc1ccco1)C(=S)Nc1ccccc1,4.2 µM (inactive),8.2 µM (inactive),36.6 µM (inactive),12 µM (inactive),46.9 µM (inactive),13.3 µM (inactive),28.3 µM (inactive),6.37 µM (inactive),19.3 µM (inactive),19.5 µM (inactive),17.2 µM (inactive),14.1 µM (inactive),18.8 µM (inactive),1.79 µM (inactive),32.2 µM (inactive),15.7 µM (inactive),3.1 µM (inactive),6.3 µM (inactive),45.9 µM (inactive),49.1 µM (inactive)
O=C(O)CCC(NC(=O)OCc1ccccc1)C(=O)NC(Cc1c[nH]cn1)C(=O)O (stereo not drawn) (Cbz-Glu-His-OH; configuration not given here),> 100 µM (inactive),> 100 µM (inactive),> 100 µM (inactive),> 100 µM (inactive),> 100 µM (inactive),37.1 µM (inactive),> 100 µM (inactive),> 100 µM (inactive),> 100 µM (inactive),> 100 µM (inactive),> 100 µM (inactive),> 100 µM (inactive),> 100 µM (inactive),> 100 µM (inactive),> 100 µM (inactive),> 100 µM (inactive),> 100 µM (inactive),> 100 µM (inactive),> 100 µM (inactive),> 100 µM (inactive)
CC(Cc1ccc(O)c(O)c1)C(C)Cc1ccc(O)c(O)c1 (stereo not given) [NORDIHYDROGUAIARETIC ACID],20.2 µM (inactive),17.1 µM (inactive),17.1 µM (inactive),16.5 µM (inactive),19.5 µM (inactive),> 39.1 µM (inactive),18.7 µM (inactive),17.3 µM (inactive),16.9 µM (inactive),16.1 µM (inactive),13.9 µM (inactive),16 µM (inactive),18.5 µM (inactive),2.99 µM (inactive),22.1 µM (inactive),13.7 µM (inactive),9.79 µM (inactive),17.2 µM (inactive),23.4 µM (inactive),16.7 µM (inactive)
